Drawing on US10703756B2, “Pyrrolo[2,3-D]pyrimidinyl, pyrrolo[2,3-B]pyrazinyl, pyrrolo[2,3-B]pyridinyl acrylamides and epoxides thereof” (Pfizer Inc., priority 2015, dated 2020), this text covers IC50 for 27 compounds.

Assay [1] deals with T1, JAK3 enzyme (Homo sapiens, UniProt P52333).
T1 sequence (P52333 1-1124): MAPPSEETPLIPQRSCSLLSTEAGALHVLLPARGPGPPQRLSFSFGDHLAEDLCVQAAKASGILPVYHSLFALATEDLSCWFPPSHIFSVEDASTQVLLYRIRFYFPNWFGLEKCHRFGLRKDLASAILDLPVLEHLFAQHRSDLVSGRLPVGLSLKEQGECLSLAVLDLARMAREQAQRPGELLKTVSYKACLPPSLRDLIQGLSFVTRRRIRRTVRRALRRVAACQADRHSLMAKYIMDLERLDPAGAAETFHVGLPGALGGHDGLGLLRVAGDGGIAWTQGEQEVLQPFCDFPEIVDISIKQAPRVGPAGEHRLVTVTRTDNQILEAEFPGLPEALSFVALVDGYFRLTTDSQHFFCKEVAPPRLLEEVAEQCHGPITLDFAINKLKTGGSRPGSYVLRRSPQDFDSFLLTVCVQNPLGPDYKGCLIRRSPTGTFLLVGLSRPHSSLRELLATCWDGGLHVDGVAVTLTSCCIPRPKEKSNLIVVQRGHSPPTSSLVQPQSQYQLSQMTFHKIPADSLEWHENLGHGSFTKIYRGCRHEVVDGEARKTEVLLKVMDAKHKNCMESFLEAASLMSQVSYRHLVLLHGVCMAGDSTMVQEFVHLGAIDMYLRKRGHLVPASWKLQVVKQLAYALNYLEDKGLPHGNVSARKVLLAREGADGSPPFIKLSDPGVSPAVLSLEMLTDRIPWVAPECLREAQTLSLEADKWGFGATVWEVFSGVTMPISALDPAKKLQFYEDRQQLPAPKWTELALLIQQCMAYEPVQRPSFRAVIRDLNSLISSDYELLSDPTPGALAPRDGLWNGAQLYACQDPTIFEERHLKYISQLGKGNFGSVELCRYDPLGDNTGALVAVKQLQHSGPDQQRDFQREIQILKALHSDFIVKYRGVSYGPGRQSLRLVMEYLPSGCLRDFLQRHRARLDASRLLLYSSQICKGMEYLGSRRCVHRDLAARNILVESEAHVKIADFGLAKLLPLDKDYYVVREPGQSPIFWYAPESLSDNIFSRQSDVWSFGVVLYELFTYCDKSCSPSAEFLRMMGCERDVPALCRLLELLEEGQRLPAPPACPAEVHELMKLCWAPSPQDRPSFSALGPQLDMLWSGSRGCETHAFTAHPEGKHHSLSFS
In words: JAK Caliper Enzyme Assay at 4 μM ATP. Type of assay: biochemical. The method, then:
(§1) Test article was solubilized in dimethyl sulfoxide (DMSO) to a stock concentration of 30 mM. An 11-point half log dilution series was created in DMSO with a top concentration of 600 μM. […] Test article and assay controls were added to a 384-well plate. […] Enzyme concentrations and incubation times were optimized for each new enzyme preps and were modified slightly over time to ensure 20%-30% phosphorylation. […] The assay plates were placed on a Caliper Life Science Lab Chip 3000 (LC3000) instrument, and each well was sampled using appropriate separation conditions to measure the unphosphorylated and phosphorylated peptide.

Assay [2] concerns the target T1, JAK3 enzyme. In words: JAK Caliper Enzyme Assay at 1 mM ATP. Type of assay: biochemical. The method, then: as §1

One may read the IC50 as the midpoint of a concentration-inhibition curve.

On to `C=CC(=O)N1CCC(COc2cnc3[nH]cc(C(=O)N[C@@H](C)COC)c3n2)C1` (mixture of isomers) [Example 10, Racemic-2-[(1-acryloylpyrrolidin-3-yl)methoxyl]-N-[(2S)-1-methoxypropan-2-yl]-5H-pyrrolo[2,3-b]pyrazine-7-carboxamide], for which the IC50 in assay [1] was determined as 2.77 nM; in assay [2] it was 632 nM. For `C=CC(=O)N1CCC(Nc2cnc3[nH]cc(C(=O)NCCC(F)(F)F)c3n2)CC1C` (racemic) [Example 22, Cis-racemic 2-{[1-acryloyl-2-methylpiperidin-4-yl]amino}-N-(3,3,3-trifluoropropyl)-5H-pyrrolo[2,3-b]pyrazine-7-carboxamide], in that order: 1.29 nM and 134 nM. For `C=CC(=O)N1CCC(N(C)c2cnc3[nH]cc(C(=O)NCC)c3n2)C1` (racemic) [Example 28, Racemic-2-[(1-acryloylpyrrolidin-3-yl)(methyl)amino]-N-ethyl-5H-pyrrolo[2,3-b]pyrazine-7-carboxamide], in that order: 13.7 nM and 1160 nM.

As for `C=CC(=O)N1CCC(Oc2cnc3[nH]cc(C(C)O)c3n2)CC1` (racemic) [Example 117], the 50% inhibitory concentration (IC50) in assay [1] came out at 11.9 nM; in assay [2] it was 1490 nM. On the same counts, the results for `C=CC(=O)N1CCN(c2cnc3[nH]cc(C(=O)NC(CO)c4cccc(F)c4)c3n2)CC1(C)C` (racemic) [Example 136, Racemic-2-(4-acryloyl-3,3-dimethylpiperazin-1-yl)-N-[1-(3-fluorophenyl)-2-hydroxyethyl]-5H-pyrrolo[2,3-b]pyrazine-7-carboxamide] are 5.82 nM and 632 nM. For `C=CC(=O)N1CCN(c2cnc3[nH]cc(C(=O)NC4COCc5ccccc54)c3n2)CC1(C)C` (racemic) [Example 144, Racemic-2-(4-acryloyl-3,3-dimethylpiperazin-1-yl)-N-(3,4-dihydro-1H-isochromen-4-yl)-5H-pyrrolo[2,3-b]pyrazine-7-carboxamide], in that order: 3.32 nM and 430 nM. On the same counts, the results for `C=CC(=O)N1CCN(c2cnc3[nH]cc(C(=O)NC(CO)c4ccccc4F)c3n2)CC1(C)C` (racemic) [Example 154, Racemic-2-(4-acryloyl-3,3-dimethylpiperazin-1-yl)-N-[1-(2-fluorophenyl)-2-hydroxyethyl]-5H-pyrrolo[2,3-b]pyrazine-7-carboxamide] are 4.68 nM and 590 nM. With `C=CC(=O)N1CCN(c2cnc3[nH]cc(C(=O)NC(CO)CCCC)c3n2)CC1(C)C` (racemic) [Example 155, Racemic-2-(4-acryloyl-3,3-dimethylpiperazin-1-yl)-N-(1-hydroxyhexan-2-yl)-5H-pyrrolo[2,3-b]pyrazine-7-carboxamide], the IC50 in assay [1] was found to be 4.92 nM; in assay [2], 721 nM.

For the compound `C=CC(=O)N1CCN(c2cnc3[nH]cc(C(=O)NC4CCOC4)c3n2)CC1(C)C` (racemic) [Example 164, Racemic-2-(4-acryloyl-3,3-dimethylpiperazin-1-yl)-N-(tetrahydrofuran-3-yl)-5H-pyrrolo[2,3-b]pyrazine-7-carboxamide], the half-inhibitory concentration (IC50) in assay [1] amounted to 4.34 nM; in assay [2], 726 nM. On the same counts, the results for `C=CC(=O)N1CCN(c2cnc3[nH]cc(C(=O)NC(CO)c4ccc(F)cc4)c3n2)CC1(C)C` (racemic) [Example 165, Racemic-2-(4-acryloyl-3,3-dimethylpiperazin-1-yl)-N-[1-(4-fluorophenyl)-2-hydroxyethyl]-5H-pyrrolo[2,3-b]pyrazine-7-carboxamide] are 10.7 nM and 957 nM.

Consider `C=CC(=O)N1CCC(Oc2cnc3[nH]cc(C(=O)NCC4(O)CCC(C)C4)c3n2)CC1` (racemic) [Example 201, Racemic-2-[(1-acryloylpiperidin-4-yl)oxy]-N-[(1-hydroxy-3-methylcyclopentyl)methyl]-5H-pyrrolo[2,3-b]pyrazine-7-carboxamide], for which the 50% inhibitory concentration (IC50) came to 3.62 nM in assay [1] and 411 nM in assay [2]. For `C=CC(=O)N1CCC(Oc2cnc3[nH]cc(C(=O)NCC4(O)CCCC[C@@H]4F)c3n2)CC1` (mixture of isomers) [Example 224, Racemic-2-[(1-acryloylpiperidin-4-yl)oxy]-N-{[(2S)-2-fluoro-1-hydroxycyclohexyl]methyl}-5H-pyrrolo[2,3-b]pyrazine-7-carboxamide], in that order: 3.54 nM and 526 nM. On the same counts, the results for `C=CC(=O)N1CCC(Oc2cnc3[nH]cc(C(=O)NCC4(O)CC[C@@H](C)C4)c3n2)CC1` (mixture of isomers) [Example 226] are 2.12 nM and 430 nM. With `C=CC(=O)N1CCC(Nc2cnc3[nH]cc(C(=O)NCC(C)(C)C)c3n2)CC1C` (racemic) [Example 267, Racemic-2-[(1-acryloyl-2-methylpiperidin-4-yl)amino]-N-(2,2-dimethylpropyl)-5H-pyrrolo[2,3-b]pyrazine-7-carboxamide], the IC50 worked out at 4.99 nM in assay [1] and 802 nM in assay [2]. Regarding `C=CC(=O)N1CCC(Nc2cnc3[nH]cc(C(=O)N[C@@H]4C[C@H]4C(F)(F)F)c3n2)CC1C` (mixture of isomers) [Example 337, Racemic-2-[(1-acryloyl-2-methylpiperidin-4-yl)amino]-N-[(1R,2R)-2-(trifluoromethyl)cyclopropyl]-5H-pyrrolo[2,3-b]pyrazine-7-carboxamide], the IC50 stood at 14.4 nM in assay [1] and 1840 nM in assay [2].

`C=CC(=O)N1CC[C@@H](OC)[C@@H](Nc2cnc3[nH]cc(C(=O)N[C@H](C)COC)c3n2)C1` (single isomer, unassigned) [Example 5]: the IC50 in assay [1] was 0.408 nM; in assay [2] it was 46 nM. For `C=CC(=O)N1CC[C@H](OC)[C@H](Nc2cnc3[nH]cc(C(=O)N[C@H](C)COC)c3n2)C1` (single isomer, unassigned) [Example 6], in that order: 10.1 nM and 1320 nM. For `C=CC(=O)N1CCC[C@@H]1COc1cnc2[nH]cc(C(=O)N[C@@H](C)COC)c2n1` (single isomer, unassigned) [Example 9], in that order: 8.86 nM and 1210 nM. On to `C=CC(=O)N1CC[C@@H](COc2cnc3[nH]cc(C(=O)N[C@@H](C)COC)c3n2)C1` (single isomer, unassigned) [Example 12], for which the concentration for half-maximal inhibition (IC50) turned out to be 5.28 nM in assay [1] and 766 nM in assay [2]. For `C=CC(=O)N1CC[C@@H](COc2cnc3[nH]cc(C(=O)N[C@H](C)COC)c3n2)C1` (single isomer, unassigned) [Example 14], in that order: 54.8 nM and 3010 nM. In the case of `C=CC(=O)N1CC[C@H](COc2cnc3[nH]cc(C(=O)N[C@H](C)COC)c3n2)C1` (single isomer, unassigned) [Example 15], the values for the IC50 in assay [1] and in assay [2] were 31.4 nM and 3280 nM, respectively.

As for `C=CC(=O)N1CC[C@@H](CNc2cnc3[nH]cc(C(=O)N[C@H](C)COC)c3n2)C1` (single isomer, unassigned) [Example 20], the figures for the concentration for half-maximal inhibition (IC50) in assay [1] and in assay [2] were 5.42 nM and 926 nM, respectively. On the same counts, the results for `C=CC(=O)N1CC[C@H](CNc2cnc3[nH]cc(C(=O)N[C@H](C)COC)c3n2)C1` (single isomer, unassigned) [Example 21] are 4.69 nM and 633 nM. For `C=CC(=O)N1CC[C@@H](Nc2cnc3[nH]cc(C(=O)NCCC(F)(F)F)c3n2)C[C@H]1C` (single isomer, unassigned) [Example 23], in that order: 3.58 nM and 651 nM. The compound `C=CC(=O)N1CC[C@@H](N(C)c2cnc3[nH]cc(C(=O)NCC)c3n2)C1` (single isomer, unassigned) [Example 29] had an IC50 in assay [2] of 8310 nM. In the case of `C=CC(=O)N1CC[C@H](N(C)c2cnc3[nH]cc(C(=O)NCC)c3n2)C1` (single isomer, unassigned) [Example 30], the 50% inhibitory concentration (IC50) in assay [1] was found to be 6.86 nM; in assay [2], 865 nM. For `C=CC(=O)N1CCCC(Nc2cnc3[nH]cc(C(=O)NCC)c3n2)C1` (single isomer, unassigned) [Example 35], in that order: 6.77 nM and 621 nM.
